Measured values taken from patent US8962671B2, “Amino-substituted 3-heteroaroylamino-propionic acid derivatives and their use as pharmaceuticals” (Sanofi, priority 2011, dated 2015).
pIC50: −log10 of the molar value.

Target: T1, Recombinant human cathepsin A (Homo sapiens, UniProt P10619)
T1 construct: Recombinant human cathepsin A (residues 29-480, with a C-terminal 10-His tag); 10-His (C); purchased R&D Systems 1049-SE
T1 sequence (P10619 29-326 limits assumed): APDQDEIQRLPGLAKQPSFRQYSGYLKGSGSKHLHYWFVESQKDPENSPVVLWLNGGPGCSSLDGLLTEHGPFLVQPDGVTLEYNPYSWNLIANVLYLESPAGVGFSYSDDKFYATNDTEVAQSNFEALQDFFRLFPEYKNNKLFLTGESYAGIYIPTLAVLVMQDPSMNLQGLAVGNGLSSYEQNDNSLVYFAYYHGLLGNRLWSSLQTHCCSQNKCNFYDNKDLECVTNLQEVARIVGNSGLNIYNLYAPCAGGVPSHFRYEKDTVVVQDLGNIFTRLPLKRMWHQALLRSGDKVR
T1 sequence (P10619 327-480 limits assumed): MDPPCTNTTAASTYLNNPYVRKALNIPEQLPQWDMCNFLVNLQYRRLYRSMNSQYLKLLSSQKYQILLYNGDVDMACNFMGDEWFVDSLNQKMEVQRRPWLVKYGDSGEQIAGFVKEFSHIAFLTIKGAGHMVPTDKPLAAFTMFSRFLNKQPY
Experiment: Cathepsin A inhibitory activity
Type: biochemical
Conditions: activated recombinant human cathepsin A 833 ng/ml, Bodipy FL-labeled bradykinin 2 μM, pH 5.5, 15 min room temperature
Description: a) Cathepsin a Inhibitory Activity
Recombinant human cathepsin A (residues 29-480, with a C-terminal 10-His tag; R&D Systems, #1049-SE) was proteolytically activated with recombinant human cathepsin L (R&D Systems, #952-CY). Briefly, cathepsin A was incubated at 10 μg/ml with cathepsin L at 1 μg/ml in activation buffer (25 mM 2-(morpholin-4-yl)-ethanesulfonic acid (MES), pH 6.0, containing 5 mM dithiothreitol (DTT)) for 15 min at 37° C. Cathepsin L activity was then stopped by the addition of the cysteine protease inhibitor E-64 (N-(trans-epoxysuccinyl)-L-leucine-4-guanidinobutylamide; Sigma-Aldrich, #E3132; dissolved in activation buffer/DMSO) to a final concentration of 10 μM.
The activated cathepsin A was diluted in assay buffer (25 mM MES, pH 5.5, containing 5 mM DTT) and mixed with the test compound (dissolved in assay buffer containing (v/v) 3% DMSO) or, in the control experiments, with the vehicle in a multiple assay plate. After incubation for 15 min at room temperature, as substrate then bradykinin carrying an N-Terminal®Bodipy FL (4,4-difluoro-5,7-dimethyl-4-bora-3a,4a-diaza-s-indacene-3-propionyl) label (JPT Peptide Technologies GmbH; dissolved in assay buffer) was added to the mixture. The final concentration of cathepsin A was 833 ng/ml and the final concentration of labeled bradykinin 2 μM. After incubation for 15 min at room temperature the reaction was stopped by the addition of stop buffer (130 mM 2-(4-(2-hydroxy-ethyl)-piperazin-1-yl)-ethanesulfonic acid, pH 7.4, containing (v/v) 0.013%®Triton X-100, 0.13% Coating Reagent 3 (Caliper Life Sciences), 6.5% DMSO and 20 μM ebelactone B (Sigma, #E0886)).
Uncleaved substrate and product were then separated by a microfluidic capillary electrophoresis on a LabChip® 3000 Drug Discovery System (12-Sipper-Chip; Caliper Life Sciences) and quantified by determination of the respective peak areas. Substrate turnover was calculated by dividing product peak area by the sum of substrate and product peak areas, and the enzyme activity and the inhibitory effect of the test compound thus quantified. From the percentage of inhibition of cathepsin A activity observed with the test compound at several concentrations, the inhibitory concentration IC50, i.e. the concentration which effects 50% inhibition of enzyme activity was, calculated.

pIC50	SMILES
5.60	O=C(O)CC(NC(=O)c1cc2[nH]c3ccccc3n2n1)c1ccc(F)cc1 (stereo not drawn) [Example 34, 3-[(4H-Benzo[4,5]imidazo[1,2-b]pyrazole-2-carbonyl)-amino]-3-(4-fluoro-phenyl)-propionic acid]
6.05	Cc1ccccc1C(CC(=O)O)NC(=O)c1cc2[nH]c3ccccc3n2n1 (stereo not drawn) [Example 35, 3-[(4H-Benzo[4,5]imidazo[1,2-b]pyrazole-2-carbonyl)-amino]-3-o-tolyl-propionic acid]
5.45	N#Cc1cccc([C@H](CC(=O)O)NC(=O)c2cc3[nH]c4ccccc4n3n2)c1 [Example 37, (S)-3-[(4H-Benzo[4,5]imidazo[1,2-b]pyrazole-2-carbonyl)-amino]-3-(3-cyano-phenyl)-propionic acid]
6.66	Cc1ccccc1[C@H](CC(=O)O)NC(=O)c1cc2[nH]c3ccccc3n2n1 [Example 38, (S)-3-[(4H-Benzo[4,5]imidazo[1,2-b]pyrazole-2-carbonyl)-amino]-3-o-tolyl-propionic acid]
6.03	Cc1cccc([C@H](CC(=O)O)NC(=O)c2cc3[nH]c4ccccc4n3n2)c1 [Example 39, (S)-3-[(4H-Benzo[4,5]imidazo[1,2-b]pyrazole-2-carbonyl)-amino]-3-m-tolyl-propionic acid]
5.93	O=C(O)C[C@H](NC(=O)c1cc2[nH]c3ccccc3n2n1)c1ccccc1F [Example 40, (S)-3-[(4H-Benzo[4,5]imidazo[1,2-b]pyrazole-2-carbonyl)-amino]-3-(2-fluoro-phenyl)-propionic acid]
5.91	O=C(O)C[C@H](NC(=O)c1cc2[nH]c3ccccc3n2n1)c1ccccc1 [Example 41, (S)-3-[(4H-Benzo[4,5]imidazo[1,2-b]pyrazole-2-carbonyl)-amino]-3-phenyl-propionic acid]
5.29	CC(C)(CC(=O)O)NC(=O)c1cc2[nH]c3ccccc3n2n1 [Example 43, 3-[(4H-Benzo[4,5]imidazo[1,2-b]pyrazole-2-carbonyl)-amino]-3-methyl-butyric acid]
6.41	O=C(O)C[C@H](NC(=O)c1cc2[nH]c3ccccc3n2n1)c1ccccc1Cl [Example 49, (S)-3-[(4H-Benzo[4,5]imidazo[1,2-b]pyrazole-2-carbonyl)-amino]-3-(2-chloro-phenyl)-propionic acid]
7.31	Cc1ccccc1[C@H](CC(=O)O)NC(=O)c1cc(NCC2CC2)n(-c2ccccc2)n1 [Example 50, (S)-3-{[5-(Cyclopropylmethyl-amino)-1-phenyl-1H-pyrazole-3-carbonyl]-amino}-3-o-tolyl-propionic acid]
6.28	Cc1ccccc1[C@H](CC(=O)O)NC(=O)c1cc(N(CC2CC2)CC2CC2)n(-c2ccccc2)n1 [Example 51, (S)-3-{[5-(Bis-cyclopropylmethyl-amino)-1-phenyl-1H-pyrazole-3-carbonyl]-amino}-3-o-tolyl-propionic acid]
7.54	Cc1ccccc1[C@H](CC(=O)O)NC(=O)c1cc(NC(=O)C(C)(C)C)n(-c2ccccc2)n1 [Example 52, (S)-3-{[5-(2,2-Dimethyl-propionylamino)-1-phenyl-1H-pyrazole-3-carbonyl]-amino}-3-o-tolyl-propionic acid]
7.57	CC(C)(C)C(=O)Nc1cc(C(=O)N[C@@H](CC(=O)O)c2ccc(Cl)cc2Cl)nn1-c1ccccc1 [Example 53, (S)-3-(2,4-Dichloro-phenyl)-3-{[5-(2,2-dimethyl-propionylamino)-1-phenyl-1H-pyrazole-3-carbonyl]-amino}-propionic acid]
7.50	CC(C)(C)C(=O)Nc1cc(C(=O)N[C@@H](CC(=O)O)c2ccccc2Cl)nn1-c1ccccc1 [Example 54, (S)-3-(2-Chloro-phenyl)-3-{[5-(2,2-dimethyl-propionylamino)-1-phenyl-1H-pyrazole-3-carbonyl]-amino}-propionic acid]
7.76	Cc1ccccc1[C@H](CC(=O)O)NC(=O)c1cc(N(C)C(=O)C(C)(C)C)n(-c2ccccc2)n1 [Example 55, (S)-3-({5-[(2,2-Dimethyl-propionyl)-methyl-amino]-1-phenyl-1H-pyrazole-3-carbonyl}-amino)-3-o-tolyl-propionic acid]
7.79	Cc1ccccc1[C@H](CC(=O)O)NC(=O)c1cc(NCC(=O)C(C)(C)C)n(-c2ccccc2)n1 [Example 56, (S)-3-{[5-(3,3-Dimethyl-2-oxo-butylamino)-1-phenyl-1H-pyrazole-3-carbonyl]-amino}-3-o-tolyl-propionic acid]
7.92	Cc1ccccc1[C@H](CC(=O)O)NC(=O)c1cc(NCC(O)C(C)(C)C)n(-c2ccccc2)n1 (stereo partly drawn) [Example 57, (S)-3-{[5-(2-Hydroxy-3,3-dimethyl-butylamino)-1-phenyl-1H-pyrazole-3-carbonyl]-amino}-3-o-tolyl-propionic acid]
7.41	Cc1ccccc1[C@H](CC(=O)O)NC(=O)c1cc(NCC(C)(O)C(C)(C)C)n(-c2ccccc2)n1 (stereo partly drawn) [Example 58, (S)-3-{[5-(2-Hydroxy-2.3,3-trimethyl-butylamino)-1-phenyl-1H-pyrazole-3-carbonyl]-amino}-3-o-tolyl-propionic acid]
7.20	Cc1ccc(C(=O)Nc2cc(C(=O)N[C@@H](CC(=O)O)c3ccccc3C)nn2-c2ccccc2)o1 [Example 61, (S)-3-({5-[(5-Methyl-furan-2-carbonyl)-amino]-1-phenyl-1H-pyrazole-3-carbonyl}-amino)-3-o-tolyl-propionic acid]
6.76	Cc1ccc(C(=O)Nc2cc(C(=O)N[C@@H](CC(=O)O)c3ccc(Cl)cc3Cl)nn2-c2ccccc2)o1 [Example 62, (S)-3-(2,4-Dichloro-phenyl)-3-({5-[(5-methyl-furan-2-carbonyl)-amino]-1-phenyl-1H-pyrazole-3-carbonyl}-amino)-propionic acid]
7.24	Cc1ccccc1[C@H](CC(=O)O)NC(=O)c1cc(N(C)C(=O)c2ccccc2)n(-c2ccccc2)n1 [Example 63, (S)-3-{[5-(Benzoyl-methyl-amino)-1-phenyl-1H-pyrazole-3-carbonyl]-amino}-3-o-tolyl-propionic acid]
7.19	CN(C(=O)c1ccccc1)c1cc(C(=O)N[C@@H](CC(=O)O)c2ccc(Cl)cc2Cl)nn1-c1ccccc1 [Example 64, (S)-3-{[5-(Benzoyl-methyl-amino)-1-phenyl-1H-pyrazole-3-carbonyl]-amino}-3-(2,4-dichloro-phenyl)-propionic acid]
7.11	Cc1ccccc1[C@H](CC(=O)O)NC(=O)c1cc(N(C)CC(O)C(C)(C)C)n(-c2ccccc2)n1 (stereo partly drawn) [Example 65, (S)-3-({5-[(2-Hydroxy-3,3-dimethyl-butyl)-methyl-amino]-1-phenyl-1H-pyrazole-3-carbonyl}-amino)-3-o-tolyl-propionic acid]
7.52	Cc1ccccc1[C@H](CC(=O)O)NC(=O)c1cc(NC(=O)c2ccccc2)n(-c2ccccc2)n1 [Example 66, (S)-3-[(5-Benzoylamino-1-phenyl-1H-pyrazole-3-carbonyl)-amino]-3-o-tolyl-propionic acid]
6.97	O=C(O)C[C@H](NC(=O)c1cc(NC(=O)c2ccccc2)n(-c2ccccc2)n1)c1ccc(Cl)cc1Cl [Example 67, (S)-3-[(5-Benzoylamino-1-phenyl-1H-pyrazole-3-carbonyl)-amino]-3-(2,4-dichloro-phenyl)-propionic acid]
5.75	Cc1ccccc1[C@H](CC(=O)O)NC(=O)c1cc(NC(=O)CO[C@@H]2C[C@H](C)CC[C@H]2C(C)C)n(-c2ccccc2)n1 [Example 68, (S)-3-({5-[2-((1R,2S,5R)-2-Isopropyl-5-methyl-cyclohexyloxy)-acetylamino]-1-phenyl-1H-pyrazole-3-carbonyl}-amino)-3-o-tolyl-propionic acid]
6.90	Cc1ccccc1[C@H](CC(=O)O)NC(=O)c1cc(NC(=O)C(c2ccccc2)c2ccccc2)n(-c2ccccc2)n1 [Example 69, (S)-3-[(5-Diphenylacetylamino-1-phenyl-1H-pyrazole-3-carbonyl)-amino]-3-o-tolyl-propionic acid]
